# According to patent US12109176B1, “Effect of glycerol on biofilm forming bacteria and fungi that changes the microbes sensitivity to pro and anti-biofilm non-toxic, non-bonded plasma amino acids and amino acid derivatives” (priority 2023, dated 2024):
# Experiments:
# [1] = test system: bacterial (S. aureus) biofilm and fungal biofilm (C. albicans); assay: Biofilm inhibition assay, bacterial and fungal taken together; assay type: cell-based; settings: symbol marks the assay
# Procedure: (§1) Two types of biofilm assays were performed: an inhibition assay and a disruption assay. The inhibition assay assesses the compound's ability to prevent biofilm development, while the disruption assay assesses the compound's ability to break up an existing mature biofilm.
# (§2) All bacterial biofilm solutions were prepared in Tryptic Soy Broth (TSB), supplemented with 1% glucose (henceforth referred to as TSB-G). All subsequent procedures were performed in a manner that maintained sterility. A solution of each amino acid or an amino acid derivative to be tested was prepared in weight to volume concentrations ranging from 0.1-5.0%. Amino acids and amino acid derivatives were also tested in combinations. Compound solutions were homogenized with gentle agitation in the dark (4° C., 24 hours) before use.
# (§3) 32 Amino acids and 2 amino acid derivatives of the amino acid serine that occur freely in human blood were tested. […] 31 of the 32 amino acids that were tested were the L-Isomers. Glycine has no stereoisomers. The 2 amino acid derivatives, ethanolamine and phosphoethanolamine were also tested. All biofilm assays were performed using 384-well non-tissue culture-treated polystyrene plates. The fungal species tested are as follows: Candida albicans, Candida guilliermondii, Candida parapsilosis, Candida glabrata, Candida tropicalis and Candida dubliniensis. The bacterial species tested are as follows: Staphylococci (standard wild type and methicillin-resistant strain USA300), Escherichia coli, Pseudomonas aeruginosa and Staphylococcus epidermidis.
# (§4) Fungal strains were streaked on Yeast Peptone Dextrose (YPD) agar plates and incubated at 30° C. for 48 hours. A single colony from each strain to be tested was inoculated into YPD broth and grown for 12 hours at 30° C., shaking at 225 rpm. […] The cells were allowed to adhere to the plate for 90 minutes at 37° C. with shaking (350 rpm). […] The plate was further incubated for 24 hours at 37° C. with shaking (350 rpm). Media was carefully aspirated and the biofilm was measured by optical density at 600 nm. […] The cells were allowed to adhere to the plate for 90 minutes at 37° C. with shaking (350 rpm). […] The plate was further incubated for 24 hours at 37° C. with shaking (350 rpm). […] The plate was further incubated for 24 hours at 37° C. with shaking (350 rpm). Media was carefully aspirated, and the biofilm was measured by optical density at 600 nm.
# Bacterial strains were streaked on Blood Agar plates (5% sheep blood in Tryptic Soy Broth) and incubated at 37° C. for 24 hours. A single colony from each strain to be tested was inoculated in a TSB broth and grown for 12 hours, at 37° C. with shaking (225 rpm). For the bacterial biofilm inhibition assays, 1 μL of saturated overnight cell culture was added to either 80 μL of TSB-G, or TSB-G supplemented with the amino acid compound solution to be tested, in a 384-well plate. The cells were allowed to adhere to the plate for 60 minutes at 37° C. without shaking. The media was carefully aspirated and 80 μL of TSB-G, or TSB-G supplemented with the amino acid compound solution was added to the plate. The plate was further incubated for 24 hours at 37° C. without shaking. Media was carefully aspirated and the biofilm was measured by optical density at 600 nm. Eight or twelve replicates were performed for each tested condition and the reported values are normalized to the control (TSB-G media only). For the bacterial biofilm disruption assays, 80 µL of TSB-G was added to the plate, along with 1 μL of overnight cell culture. The cells were allowed to adhere to the plate for 60 minutes at 37° C. with no shaking. The media was carefully aspirated and 80 μL of TSB-G was added to the plate. The plate was further incubated for 24 hours at 37° C. with no shaking. Media was carefully aspirated from the mature biofilm and 80 μL of TSB-G, or TSB-G supplemented with the amino acid to be tested, was gently added to the plate.
# [2] = test system: bacterial (S. aureus) biofilm; assay: Bacterial biofilm disruption assay; assay type: cell-based, Staphylococcus aureus
# Procedure: as §1, §2, §3
# (§5) Bacterial strains were streaked on Blood Agar plates (5% sheep blood in Tryptic Soy Broth) and incubated at 37° C. for 24 hours. A single colony from each strain to be tested was inoculated in a TSB broth and grown for 12 hours, at 37° C. with shaking (225 rpm). For the bacterial biofilm inhibition assays, 1 μL of saturated overnight cell culture was added to either 80 μL of TSB-G, or TSB-G supplemented with the amino acid compound solution to be tested, in a 384-well plate. The cells were allowed to adhere to the plate for 60 minutes at 37° C. without shaking. The media was carefully aspirated and 80 μL of TSB-G, or TSB-G supplemented with the amino acid compound solution was added to the plate. The plate was further incubated for 24 hours at 37° C. without shaking. Media was carefully aspirated and the biofilm was measured by optical density at 600 nm. Eight or twelve replicates were performed for each tested condition and the reported values are normalized to the control (TSB-G media only). For the bacterial biofilm disruption assays, 80 µL of TSB-G was added to the plate, along with 1 μL of overnight cell culture. The cells were allowed to adhere to the plate for 60 minutes at 37° C. with no shaking. The media was carefully aspirated and 80 μL of TSB-G was added to the plate. The plate was further incubated for 24 hours at 37° C. with no shaking. Media was carefully aspirated from the mature biofilm and 80 μL of TSB-G, or TSB-G supplemented with the amino acid to be tested, was gently added to the plate. The plate was further incubated for 24 hours at 37° C. without shaking. Media was aspirated and the biofilm was measured by optical density at 600 nm. Twelve replicates were performed for each tested condition and the reported values are normalized to the control (TSB-G media only).
# [3] = test system: bacterial biofilm; assay: In vitro testing on bacterial biofilm (inhibition and/or disruption); assay type: cell-based; settings: in vitro testing
# Procedure: as §1, §2, §3, §5
# [4] = test system: bacterial (S. aureus) biofilm; assay: Bacterial biofilm inhibition assay; assay type: cell-based, Staphylococcus aureus
# Procedure: as §1, §2, §3, §5
# [5] = test system: fungal biofilm (C. albicans); assay: Fungal biofilm disruption assay; assay type: cell-based, Candida albicans
# Procedure: as §1, §2, §3, §4
# [6] = Table E, in the absence of an infusion of glycerol
# [7] = Table F, in the presence of a sufficient concentration of glycerol
Compound,"Reduce or Inhibit B Biofilm (dots: Disruption Biofilm Assay) ([2]; Table D, 0.1 to 5.0%)","Reduce or Inhibit B Biofilm (dots: Disruption Biofilm Assay) [2, 7]",effect on bacterial biofilm (in words) [3],"Reduce or Inhibit B Biofilm (squares: Inhibition Biofilm Assay) ([4]; Table D, 0.1 to 5.0%)","Reduce or Inhibit B Biofilm (squares: Inhibition Biofilm Assay) [4, 7]","Reduce or Inhibit F Biofilm (dots: Disruption Biofilm Assay) ([5]; Table D, 0.1 to 5.0%)","Reduce or Inhibit F Biofilm (dots: Disruption Biofilm Assay) [5, 7]",other results
"N[C@@H](CCSC[C@H](N)C(=O)O)C(=O)O [Cystathionine, L-cystathionine]",● (Single dot [ie. ●] signifies little effect on the Disruption Biofilm Assay (from about 10 to less than 30%)),● (Single dot [ie. ●] signifies little effect on the Disruption Biofilm Assay (from about 10 to less than 30%)),antibacterial biofilm effect,–,–,–,–,"Neutral (square: Inhibition Biofilm Assay) ([1]; Table D, Neutral = no effect on the biofilm): ▪ (Single square [ie. ▪] signifies little effect on the Inhibition Biofilm Assay (from about 10 to less than 30%)); Neutral (square: Inhibition Biofilm Assay) [1, 6]: ▪ (Single square [ie. ▪] signifies little effect on the Inhibition Biofilm Assay (from about 10 to less than 30%)); Neutral (square: Inhibition Biofilm Assay) [1, 7]: ▪ (Single square [ie. ▪] signifies little effect on the Inhibition Biofilm Assay (from about 10 to less than 30%))"
"NCCOP(=O)(O)O [Phospho-ethanolamine, phosphoethanolamine]",● (Single dot [ie. ●] signifies little effect on the Disruption Biofilm Assay (from about 10 to less than 30%)),● (Single dot [ie. ●] signifies little effect on the Disruption Biofilm Assay (from about 10 to less than 30%)),antibacterial biofilm effect,▪ (Single square [ie. ▪] signifies little effect on the Inhibition Biofilm Assay (from about 10 to less than 30%)),▪ (Single square [ie. ▪] signifies little effect on the Inhibition Biofilm Assay (from about 10 to less than 30%)),–,–,–
"NC(CCCC(=O)O)C(=O)O (stereo not shown) [2 Aminoadipic Acid, 2-aminoadipic acid]",● (Single dot [ie. ●] signifies little effect on the Disruption Biofilm Assay (from about 10 to less than 30%)),● (Single dot [ie. ●] signifies little effect on the Disruption Biofilm Assay (from about 10 to less than 30%)),antibacterial biofilm effect,▪ (Single square [ie. ▪] signifies little effect on the Inhibition Biofilm Assay (from about 10 to less than 30%)),▪ (Single square [ie. ▪] signifies little effect on the Inhibition Biofilm Assay (from about 10 to less than 30%)),–,–,–
"N[C@@H](Cc1c[nH]c2ccccc12)C(=O)O [Tryptophan, L-tryptophan]",–,–,promoted bacterial biofilm formation,–,–,● (Single dot [ie. ●] signifies little effect on the Disruption Biofilm Assay (from about 10 to less than 30%)),● (Single dot [ie. ●] signifies little effect on the Disruption Biofilm Assay (from about 10 to less than 30%)),–
"N[C@@H](CO)C(=O)O [Serine, L-serine]",–,–,promoted bacterial biofilm formation,–,–,● (Single dot [ie. ●] signifies little effect on the Disruption Biofilm Assay (from about 10 to less than 30%)),● (Single dot [ie. ●] signifies little effect on the Disruption Biofilm Assay (from about 10 to less than 30%)),–
"NC(=O)C[C@H](N)C(=O)O [Asparagine, L-asparagine]",–,–,promoted bacterial biofilm formation,–,–,–,–,"Promote B Biofilm (squares: Inhibition Biofilm Assay) ([4]; Table D, 0.1 to 5.0%): ▪ (Single square [ie. ▪] signifies little effect on the Inhibition Biofilm Assay (from about 10 to less than 30%)); Promote B Biofilm (squares: Inhibition Biofilm Assay) [4, 6]: ▪ (Single square [ie. ▪] signifies little effect on the Inhibition Biofilm Assay (from about 10 to less than 30%))"
